In publication PMC11662004 (Communications Chemistry, 2024):

Biological target: T1, TET2CDΔLCI (Homo sapiens, UniProt Q6N021)
T1 construct: FLAG-[thrombin cleavage site]-SUMO (N); made in house; host or cells: E. coli
Assay: Continuous reaction monitoring (1H NMR), 2OG decarboxylation
Type: biochemical
Conditions: for V0 TET2: 20 µM DNA, 100 μM 2OG, 5 μM TET2CDΔLCI; for Relative V0 TET2: relative to reactions without DNA
Procedure: Double-stranded DNA oligomers were added at a final concentration of 20 µM. Data plotted from two independent replicates (n = 2). Initial rates reported as the mean of two independent replicates (n = 2). TEXT PRINTED IN THE PICTURE: (c) No DNA: V0 (μM min^−1) NgTet1: 0.36; V0 (μM min^−1) TET2: 1.28; Relative V0 NgTet1: 1; Relative V0 TET2: 1 | (c) ^5HC DNA: V0 (μM min^−1) NgTet1: 1.30; V0 (μM min^−1) TET2: 6.34; Relative V0 NgTet1: 3.6; Relative V0 TET2: 5.0 | (c) AT DNA: V0 (μM min^−1) NgTet1: 0.82; V0 (μM min^−1) TET2: 5.78; Relative V0 NgTet1: 2.3; Relative V0 TET2: 4.5 | (c) ^5mC DNA: V0 (μM min^−1) NgTet1: 1.52; V0 (μM min^−1) TET2: 6.79; Relative V0 NgTet1: 4.2; Relative V0 TET2: 5.3
All ^1H NMR spectra were recorded at 25 °C using D2O as a reference for internal deuterium lock on a Bruker Avance III 700 MHz equipped with an inverse TCI cryoprobe in 3 or 5 mm diameter tubes with a total sample volume of 160 or 565 μL, respectively. The water signal was reduced using Perfect Echo excitation sculpting suppression. Chemical shifts are reported in ppm relative to D2O (δH = 4.70 ppm).
Spectrometer settings were determined using a control sample containing all reaction components excluding enzyme. TET enzyme was added to an identical sample, and the resulting assay mixture was transferred to an NMR tube before deposition into the instrument. […] Data acquisition was started following a brief spectrometer setting optimisation (up to 200 s delay between enzyme addition and data acquisition); 8–32 scans were accumulated for a single spectrum, corresponding to 65–179 s of acquisition time. Spectrum recordings were carried out consecutively without delay. Data were processed using automated routines on MestReNova v14.2.0; signals of interest were integrated with absolute intensity scaling. ^1H NMR time courses reported in figures are representative results from two or three independent replicates.

[1] = n = 1, time (min) 5HC DNA 5.78333, AT DNA 5.73333, 5mC DNA 5.58333
[2] = n = 1, time (min) 5HC DNA 8.86667, AT DNA 8.81667, 5mC DNA 8.65
[3] = n = 1, time (min) 5HC DNA 11.95, AT DNA 11.8833, 5mC DNA 11.7333
[4] = n = 1, time (min) 5HC DNA 15.0333, AT DNA 14.9667, 5mC DNA 14.8167
[5] = n = 1, time (min) 5HC DNA 18.1167, AT DNA 18.05, 5mC DNA 17.9
[6] = n = 1, time (min) 5HC DNA 21.2333, AT DNA 21.1333, 5mC DNA 21
[7] = n = 1, time (min) 5HC DNA 24.3333, AT DNA 24.2167, 5mC DNA 24.0667
[8] = n = 1, time (min) 5HC DNA 27.4167, AT DNA 27.3, 5mC DNA 27.15
[9] = n = 1, time (min) 5HC DNA 30.55, AT DNA 30.3833, 5mC DNA 30.2333
[10] = n = 1, time (min) 5HC DNA 33.65, AT DNA 33.4667, 5mC DNA 33.3167
[11] = n = 1, time (min) 5HC DNA 36.7333, AT DNA 36.5333, 5mC DNA 36.4
[12] = n = 1, time (min) 5HC DNA 39.8333, AT DNA 39.6167, 5mC DNA 39.4833
[13] = n = 1, time (min) 5HC DNA 42.9, AT DNA 42.7, 5mC DNA 42.5667
[14] = n = 1, time (min) 5HC DNA 46, AT DNA 45.7833, 5mC DNA 45.6667
[15] = n = 1, time (min) 5HC DNA 49.0833, AT DNA 48.8667, 5mC DNA 48.75
[16] = n = 1, time (min) 5HC DNA 52.1667, AT DNA 51.95, 5mC DNA 51.8333
[17] = n = 1, time (min) 5HC DNA 55.25, AT DNA 55.0333, 5mC DNA 54.9167
[18] = n = 1, time (min) 5HC DNA 58.3167, AT DNA 58.1167, 5mC DNA 58
[19] = n = 1, time (min) 5HC DNA 61.4, AT DNA 61.2667, 5mC DNA 61.1
[20] = n = 2, time (min) 5HC DNA 5.66667, AT DNA 5.66667, 5mC DNA 5.8
[21] = n = 2, time (min) 5HC DNA 8.75, AT DNA 8.75, 5mC DNA 8.88333
[22] = n = 2, time (min) 5HC DNA 11.8333, AT DNA 11.85, 5mC DNA 11.9667
[23] = n = 2, time (min) 5HC DNA 14.9167, AT DNA 14.9333, 5mC DNA 15.05
[24] = n = 2, time (min) 5HC DNA 18.0167, AT DNA 18.0167, 5mC DNA 18.1167
[25] = n = 2, time (min) 5HC DNA 21.1, AT DNA 21.1, 5mC DNA 21.2
[26] = n = 2, time (min) 5HC DNA 24.1833, AT DNA 24.1667, 5mC DNA 24.2833
[27] = n = 2, time (min) 5HC DNA 27.25, AT DNA 27.25, 5mC DNA 27.3667
[28] = n = 2, time (min) 5HC DNA 30.3333, AT DNA 30.3333, 5mC DNA 30.45
[29] = n = 2, time (min) 5HC DNA 33.4167, AT DNA 33.4167, 5mC DNA 33.5333
[30] = n = 2, time (min) 5HC DNA 36.5, AT DNA 36.5, 5mC DNA 36.6167
[31] = n = 2, time (min) 5HC DNA 39.5833, AT DNA 39.5833, 5mC DNA 39.7
[32] = n = 2, time (min) 5HC DNA 42.6667, AT DNA 42.6667, 5mC DNA 42.7833
[33] = n = 2, time (min) 5HC DNA 45.75, AT DNA 45.75, 5mC DNA 45.8667
[34] = n = 2, time (min) 5HC DNA 48.8333, AT DNA 48.8333, 5mC DNA 48.95

Row | Substance | V0 TET2 [µM/min] | succinate [1] [µM] | succinate [2] [µM] | succinate [3] [µM] | succinate [4] [µM] | succinate [5] [µM] | succinate [6] [µM] | succinate [7] [µM] | succinate [8] [µM] | succinate [9] [µM] | succinate [10] [µM] | succinate [11] [µM] | succinate [12] [µM] | succinate [13] [µM] | succinate [14] [µM] | succinate [15] [µM] | succinate [16] [µM] | succinate [17] [µM] | succinate [18] [µM] | succinate [19] [µM] | also measured
1 | AT DNA: double-stranded self-complementary 5'-ACC ACA TGT GGT-3', CpG replaced by ApT (DNA ACCACATGTGGT; DNA, backbone and methylation of C not given here; self-complementary duplex) | 5.78 | 39.5956 | 49.5065 | 54.2458 | 57.9674 | 59.2828 | 62.1944 | 62.9572 | 64.7984 | 64.7023 | 65.163 | 66.9776 | 66.6376 | 66.8738 | 68.072 | 67.0651 | 67.7938 | 69.134 | 67.5356 | 68.2246 | succinate [20]: 40.358 µM; succinate [21]: 49.4783 µM; succinate [22]: 54.4351 µM; succinate [23]: 56.62 µM; succinate [24]: 59.0171 µM; succinate [25]: 60.9868 µM; succinate [26]: 62.4531 µM; succinate [27]: 63.5112 µM; succinate [28]: 64.7948 µM; succinate [29]: 64.9179 µM; succinate [30]: 65.839 µM; succinate [31]: 65.6357 µM; succinate [32]: 67.3494 µM; succinate [33]: 68.1347 µM; succinate [34]: 66.7934 µM; Relative V0 TET2: 4.5
2 | 5HC DNA: non-methylated DNA of the same sequence, 5'-ACC ACC GGT GGT-3', non-substrate (DNA ACCACCGGTGGT; DNA, backbone not given here) | 6.34 | 44.3007 | 54.4828 | 59.3102 | 61.4847 | 65.1131 | 67.3764 | 68.0997 | 69.3831 | 70.6241 | 71.0252 | 71.8004 | 71.1327 | 71.8764 | 73.8393 | 72.8966 | 73.2704 | 74.052 | 74.0256 | 74.622 | succinate [20]: 46.0808 µM; succinate [21]: 55.6216 µM; succinate [22]: 60.916 µM; succinate [23]: 64.6085 µM; succinate [24]: 67.8421 µM; succinate [25]: 69.2588 µM; succinate [26]: 70.2836 µM; succinate [27]: 71.3409 µM; succinate [28]: 71.8731 µM; succinate [29]: 71.8297 µM; succinate [30]: 74.102 µM; succinate [31]: 75.5956 µM; succinate [32]: 75.7723 µM; succinate [33]: 76.9891 µM; succinate [34]: 76.9274 µM; Relative V0 TET2: 5.0
